Data published in a compilation of properties of binary mixtures (doi:10.1007/s10953-015-0325-1).

Assay: xn = mol fraction of the nth substance listed
Settings: 100 kPa

CCCN + CCCCCCCC[n+]1ccn(C)c1.F[P-](F)(F)(F)(F)F
speed of sound [m/s]
Settings | x1 = 0.0976 | x1 = 0.218 | x1 = 0.263 | x1 = 0.3677 | x1 = 0.4676 | x1 = 0.5629 | x1 = 0.6971 | x1 = 0.7972 | x1 = 0.9087 | x1 = 1
293.15 K | 1408 | 1392.4 | 1388.7 | 1375.5 | 1363.8 | – | 1327.2 | 1296.3 | 1260.5 | –
298.15 K | 1393.2 | 1378.7 | 1375 | – | – | 1335.9 | – | – | 1244 | 1213.9
303.15 K | 1381.2 | 1362.6 | 1358.9 | 1344.5 | 1332.1 | 1316.2 | – | 1260.7 | – | –
308.15 K | 1368.6 | 1348.2 | – | 1330.1 | 1314.1 | 1299.6 | 1270.5 | 1239.1 | – | 1164.9
313.15 K | – | 1333.4 | – | 1312.1 | 1295.8 | 1278.5 | – | 1218.2 | 1177.2 | 1140.4

CCCN + CCCC[n+]1ccn(C)c1.F[P-](F)(F)(F)(F)F
speed of sound [m/s]
Settings | x1 = 0.0684 | x1 = 0.155 | x1 = 0.2613 | x1 = 0.3519 | x1 = 0.4366 | x1 = 0.5956 | x1 = 0.69 | x1 = 0.79 | x1 = 0.9026 | x1 = 1
293.15 K | 1444.7 | 1429.8 | 1407.5 | – | 1371.3 | – | 1315 | 1288.8 | – | –
298.15 K | – | 1419.3 | 1395 | – | 1355.3 | 1320.6 | – | 1269.5 | 1235.5 | –
303.15 K | – | – | 1380.5 | – | 1338 | – | 1277.6 | 1247.8 | – | 1189.5
308.15 K | 1412.4 | – | 1365.2 | 1341 | 1319.8 | 1280.4 | 1257 | 1225.2 | 1189.2 | 1164.9
313.15 K | 1399.6 | 1380.1 | 1348.8 | 1324.5 | 1300 | – | – | 1202.5 | 1165.5 | 1140.4

CCCCCC[n+]1ccn(C)c1.F[P-](F)(F)(F)(F)F + CCCN
speed of sound [m/s]
Settings | x2 = 0 | x2 = 0.0873 | x2 = 0.1718 | x2 = 0.2686 | x2 = 0.3426 | x2 = 0.4606 | x2 = 0.5627 | x2 = 0.6597 | x2 = 0.7913 | x2 = 0.902
293.15 K | 1436.9 | – | 1411 | 1396.5 | 1385.5 | 1365.7 | 1347.1 | 1324 | 1289.8 | 1258.5
298.15 K | 1423.5 | 1408 | – | 1382.6 | 1370.4 | 1350.8 | 1330.3 | 1309 | 1271.5 | 1238.6
303.15 K | 1410.6 | 1396.1 | – | 1366.5 | 1354.3 | – | – | 1291.1 | 1253.1 | 1216.1
308.15 K | 1398.2 | – | 1370.6 | 1351.7 | 1337.3 | 1315.3 | – | – | 1230.8 | 1193
313.15 K | – | 1372.5 | 1357.5 | 1336.2 | 1320.4 | 1297.1 | – | 1250 | – | 1170

CCCC[n+]1ccn(C)c1.F[P-](F)(F)(F)(F)F + CCCN
x2 = 0
Settings | speed of sound [m/s]
293.15 K | 1454.7
298.15 K | 1442.4
303.15 K | 1430.3
308.15 K | 1418.5
313.15 K | 1406.8

CCCCCCCC[n+]1ccn(C)c1.F[P-](F)(F)(F)(F)F + CCCN
x2 = 0
Settings | speed of sound [m/s]
293.15 K | 1421.2
298.15 K | 1406.4
308.15 K | 1378.8
313.15 K | 1365.7

CCCN + CCCCCC[n+]1ccn(C)c1.F[P-](F)(F)(F)(F)F
x1 = 1
Settings | speed of sound [m/s]
293.15 K | 1238.3
303.15 K | 1189.5
308.15 K | 1164.9
313.15 K | 1140.4
